# Legend:
# Pol-β = Pol-β (Homo sapiens, UniProt P06746); assay: Pol-β-directed strand-displacement synthesis, reconstituted in vitro assay; type: biochemical; conditions: 0.5, 1, 2.5 and 5 μM
# Method: (§1) Lanes 4-7 contained increasing concentrations of NSC-30049 (0.5, 1, 2.5, and 5 μM, respectively). The arrows indicate the positions of the 63-mer substrate and the products. […] Data are representative of three different experiments.
# Fen1 = Fen1 (Homo sapiens, UniProt P39748); assay: Fen1 activity in vitro; type: biochemical; conditions: 0.5-5 μM; Fen1 1 nM
# Sequence of Fen1 (P39748 whole entry, species assumed): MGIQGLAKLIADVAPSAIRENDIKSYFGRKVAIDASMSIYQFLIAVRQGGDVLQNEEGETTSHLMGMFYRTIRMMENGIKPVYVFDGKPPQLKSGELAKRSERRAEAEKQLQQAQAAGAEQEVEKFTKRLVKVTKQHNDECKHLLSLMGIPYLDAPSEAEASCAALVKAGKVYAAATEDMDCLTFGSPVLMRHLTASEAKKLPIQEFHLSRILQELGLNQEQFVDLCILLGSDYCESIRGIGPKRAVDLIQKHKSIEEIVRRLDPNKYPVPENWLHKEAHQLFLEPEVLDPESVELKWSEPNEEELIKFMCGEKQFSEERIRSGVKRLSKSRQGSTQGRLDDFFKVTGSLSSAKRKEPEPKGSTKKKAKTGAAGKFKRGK
# Method: as §1
# DNA ligase I = DNA ligase I (Homo sapiens, UniProt P18858); assay: DNA ligase I activity in vitro; type: biochemical; conditions: DNA ligase I 1 nM
# Sequence of DNA ligase I (P18858 whole entry, species assumed): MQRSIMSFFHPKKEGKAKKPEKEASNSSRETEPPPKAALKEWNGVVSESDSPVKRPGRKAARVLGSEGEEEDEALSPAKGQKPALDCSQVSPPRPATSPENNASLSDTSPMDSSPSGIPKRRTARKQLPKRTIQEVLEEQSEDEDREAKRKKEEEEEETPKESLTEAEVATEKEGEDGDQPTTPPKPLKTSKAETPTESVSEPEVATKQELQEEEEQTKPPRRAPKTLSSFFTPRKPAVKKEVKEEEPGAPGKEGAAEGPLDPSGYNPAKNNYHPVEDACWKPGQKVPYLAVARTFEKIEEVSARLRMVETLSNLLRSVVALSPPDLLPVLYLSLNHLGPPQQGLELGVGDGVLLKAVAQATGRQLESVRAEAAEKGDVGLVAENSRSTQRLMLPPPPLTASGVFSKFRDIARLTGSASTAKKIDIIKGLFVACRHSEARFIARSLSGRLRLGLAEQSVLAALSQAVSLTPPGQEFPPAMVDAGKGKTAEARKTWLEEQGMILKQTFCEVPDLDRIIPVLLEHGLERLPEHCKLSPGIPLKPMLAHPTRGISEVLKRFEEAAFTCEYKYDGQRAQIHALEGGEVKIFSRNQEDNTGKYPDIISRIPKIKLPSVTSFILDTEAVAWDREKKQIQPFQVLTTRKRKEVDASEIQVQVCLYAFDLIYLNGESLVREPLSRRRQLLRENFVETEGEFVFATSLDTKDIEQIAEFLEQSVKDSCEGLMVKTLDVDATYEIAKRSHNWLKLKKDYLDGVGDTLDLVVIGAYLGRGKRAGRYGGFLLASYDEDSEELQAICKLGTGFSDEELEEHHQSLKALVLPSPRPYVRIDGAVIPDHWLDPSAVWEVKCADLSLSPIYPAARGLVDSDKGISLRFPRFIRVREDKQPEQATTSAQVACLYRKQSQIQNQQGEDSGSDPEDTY
# Method: as §1
# AsPC1 = assay: MTT assay, pancreatic cancer cell line; type: cell-based, human; conditions: Homo sapiens; AsPC1 (dFdC-resistant); single agent; 72 h; read-out: IC50
# PANC1 = assay: MTT assay, pancreatic cancer cell line; type: cell-based, human; conditions: Homo sapiens, PANC-1; PANC1 (dFdC-resistant); single agent; 72 h; read-out: IC50
# BxPC3 = assay: MTT assay, pancreatic cancer cell line; type: cell-based, human; conditions: Homo sapiens, BXPC-3; BxPC3 (dFdC-sensitive); single agent; 72 h; read-out: IC50
# HPAC = assay: MTT assay, pancreatic cancer cell line; type: cell-based, human; conditions: Homo sapiens; HPAC (dFdC-sensitive); single agent; 72 h; read-out: IC50
# colon cancer stem cells = assay: cell growth inhibition of colon cancer stem cells; type: cell-based, human; conditions: Homo sapiens, 72 h
# Method: (§2) Cells were treated with 1.25 μM of NSC-30049 and 1.25 μM of OPT either alone or in combination for 72 h. Data are mean±SD of triplicate experiments. […] Cells were treated with 1.25 μM of NSC-30049 and 1.25 μM of OPT either alone or in combination for 72 h. Fold change in gene expression values is shown as mean±SD of three experiments and are normalized to GAPDH gene expression.
# (§3) The effect of administration of NSC-30049 in combination with oxaliplatin (OPT) was also examined in human parental cancer cells and colon cancer stem cells (FIG. 9A). Cells were treated with 1.25 μM of NSC-30049 and […] of OPT either alone or in combination for 72 h. Cell growth inhibition was assayed. Data presented are mean±SD of triplicate experiments.
# [1] = system: human parental cancer cells; assay: cell growth inhibition of parental cancer cells; type: cell-based; conditions: Homo sapiens, 72 h
# Method: as §2, §3
# [2] = system: CD133, Nanog, Oct4, Sox2 expression in colon cancer stem cells; assay: qRT-PCR of self-renewal marker genes in colon cancer stem cells; type: cell-based, human; conditions: 1.25 μM NSC-30049 + 1.25 μM OPT, 72 h, compared to either alone
# Method: (§4) Cells were treated with 1.25 μM of NSC-30049 and 1.25 μM of OPT either alone or in combination for 72 h. Data are mean±SD of triplicate experiments. FIG. 9B depicts the inhibition in expression of self-renewal marker genes of colon cancer stem cells, qRT-PCR data of CD133+, Oct4, Sox2 and Nanog gene expression levels of parental cancer cells and colon cancer stem cells was obtained. Cells were treated with 1.25 μM of NSC-30049 and 1.25 μM of OPT either alone or in combination for 72 h. Fold change in gene expression values is shown as mean±SD of three experiments and are normalized to GAPDH gene expression.
# (§5) Without being bound to a particular theory, the effect of administration of NSC-30049 in combination with oxaliplatin (OPT) on the expression of self-renewal marker genes of colon cancer stem cells was analyzed. Self-renewal marker genes are highly expressed in colon cancer stem cells compared to human parental cancer cells. qRT-PCR data of CD133+, Oct4, Sox2 and Nanog gene expression levels of parental cancer cells and colon cancer stem cells was obtained (FIG. 9B). Cells were treated with 1.25 μM of NSC-30049 and 1.25 μM of OPT either alone or in combination for 72 h. The fold change in gene expression values is shown as mean±SD of three experiments and were normalized to GAPDH gene expression. […]
# [3] = system: CD133, Nanog, Oct4, Sox2 expression in human parental cancer cells; assay: qRT-PCR of self-renewal marker genes in parental cancer cells; type: cell-based; conditions: 1.25 μM NSC-30049 + 1.25 μM OPT, 72 h, compared to either alone
# Method: as §4, §5
# [4] = system: Aldh1a1 and Aldh1a7 expression in GBM-L0 stem cells; assay: qRT-PCR of aldehyde dehydrogenase genes in GBM-L0 stem cells; type: cell-based; conditions: 36 h
# Method: Cells were pretreated with 2.5 μM of NSC30049 or 10 or 100 μM TMZ alone or in combination with NSC-30049 for 36 h. Then, total RNA was isolated and processed for gRT-PCR. Data presented are the mean±SE of three different measurements. […] Treatment with NSC-30049 or TMZ reduced the expression of aldehyde dehydrogenase gene Aldh1a7 in GBM-LO stem cell line in vitro, but not treatment with NSC-30049 and TMZ. Cells were pretreated with 2.5 μM of NSC30049 or 10 or 100 μM of TMZ alone or in combination with NSC-30049 for 36 h. Then, total RNA was isolated and processed for qRT-PCR. Data presented are the mean±SE of three different measurements.
# Without being bound to a particular theory, the effect of administration of NSC-30049 in combination with temozolomide (TMZ) on the expression of self-renewal marker genes of […] was analyzed. Self-renewal marker genes are highly expressed in colon cancer stem cells compared to human parental cancer cells. qRT-PCR data of CD133+, Oct4, Sox2 and Nanog gene expression levels of GBM-L0 stem cells was obtained (FIG. 14A). Cells were pretreated with 2.5 μM of NSC30049 or 10 or 100 μM of TMZ alone or in combination with NSC-30049 for 36 h. Then, total RNA was isolated and processed for qRT-PCR. Data presented are the mean±SE of three different measurements. […]
# [5] = 1.25 μM NSC-30049 in combination with 1.25 μM oxaliplatin
smiles,measurement,setting,value
"ClCC=CC[N+]12CN3CN(CN(C3)C1)C2 [NSC-30049, 1-(4-Chloro-2-butenyl)-1λ˜5˜,3,5,7-tetraazatricyclo[3.3.1.1˜3,7˜]decane]",effect on Pol-β-directed strand-displacement synthesis,Pol-β,did not affect Pol-β-directed strand-displacement synthesis
same,effect on Fen1 activity,Fen1,did not affect Fen1 activity
same,effect on DNA ligase I activity,DNA ligase I,did not affect DNA ligase I activity
same,IC50,AsPC1,1.88 ± 0.11 µM
same,IC50,PANC1,5.12 ± 0.22 µM
same,IC50,BxPC3,3.87 ± 0.24 µM
same,IC50,HPAC,4.44 ± 0.28 µM
same,inhibition at 1.25 µM,colon cancer stem cells; [5],~80%
same,inhibition at 1.25 µM,"colon cancer stem cells; alone, 1.25 μM",~10%
same,inhibition at 1.25 µM,[1]; [5],~70%
same,inhibition at 1.25 µM,"[1]; alone, 1.25 μM",~20%
same,"expression of CD133, Nanog, Oct4, and Sox2",[2],"significantly inhibited the expression of CD133, Nanog, Oct4, and Sox2"
same,"expression of CD133, Nanog, Oct4, and Sox2",[3],"inhibited the expression of CD133, Nanog, Oct4, and Sox2 in human parental cancer cells"
same,expression of Aldh1a1,[4]; 2.5 μM NSC-30049 + 10 or 100 μM TMZ,significantly inhibited the expression of Aldh1a1
same,expression of Aldh1a7,[4]; agent alone,inhibited

# — patent US9517244B2, “Therapeutic combinations for use in neoplasia” (University of Florida Research Foundation, Inc., priority 2011, dated 2016)
